Where two headings read alike, the source gives them in different places.
How the values were obtained:
[1] = biological target: T1, PNP from E. coli (Escherichia coli, UniProt P0ABP8); assay: Inhibition of PNP from E. coli; format: biochemical; details: previous work of the inventors
[2] = biological target: T2, PNP from H. pylori strain 26695 (Helicobacter pylori, UniProt P56463); details: formycins; Wojtyś et al., 2021; read-out: inhibition constant; cited from earlier work
T2 construct: made in house; host or cells: E. coli

[3] = biological target: T2, PNP from H. pylori strain 26695; assay: Inhibition of PNP from H. pylori, spectrophotometric phosphorolysis assay; format: biochemical; details: formycins; kinetic methods of Example 1; read-out: inhibition constant
From the text: The specific activity of PNP is usually determined using inosine as a substrate, in an assay in which the phosphorolysis product, hypoxanthine, is oxidized to uric acid in a reaction catalysed by xanthine oxidase. However, in the inhibition assay of PNP from H. pylori strain 26695, 7-methylguanosine (m^7Guo) and guanosine (Guo) were used as nucleoside substrates to avoid potential inhibition of xanthine oxidase by the test compounds. Phosphorolysis of these two substrates can be observed using a direct spectrophotometric method in a known manner.
Enzymatic activity was studied in a quartz cuvette with an optical path length of 1 cm or 0.5 cm. The absorbance of the reaction mixture, at the observation wavelength, never exceeded 1.2. The reaction volume was 1 ml or 1.4 ml in cuvettes with optical path lengths of 1 cm and 0.5 cm, respectively. The reaction mixture contained 50 mM Hepes/NaOH buffer, pH 7.0, 50 mM phosphate buffer, pH 7.0 (unless otherwise indicated), nucleoside substrate and inhibitor (with the latter not added to the reference/control reactions). Reactions were usually initiated by adding the enzyme to a cuvette containing the other reaction components. However, in cases where possible slow formation of an inhibitor-enzyme complex was checked, a second variant was also used involving incubation of the enzyme in a reaction mixture containing the inhibitor but lacking the substrate, 7-methylguanosine, and initiation of the reaction by adding this substrate.
In order to determine the inhibition constants and determine the molecular mechanism of inhibition, equations describing different mechanisms of inhibition were fitted to the obtained experimental data. GraphPad Prism 8 program was used. The model best describing the obtained data was selected based on the sum of squares of deviations using the F test for models with different number of parameters and the Akaike criterion (AIC) for models with the same number of parameters.
The following equations were used to describe competitive inhibition, characterized by the inhibition constant Kic, [1], uncompetitive, characterized by the inhibition constant Kiu, [2], non-competitive, characterized by the inhibition constant Kin, [3], and mixed, characterized by the inhibition constants Kiu and Kic, [4] (Segel, 1993):
The last equation can also be represented in the following form, as used by GraphPad Prism software, where Kiu=alpha Kic:
Immucillin A was chosen as the most promising one for potential pharmacological use in combating H. pylori infection because immucillin A has an amino substituent at position 6 of the 9-dazapurine ring, while PNP found in the human body requires a substituent at this position having electron-pairs-hydrogen bond acceptors, such as a substituent in the form of a keto group, to strongly bind the ligand. According to the invention, it is therefore believed that immucillin A will not interact with the host PNP, and thus allow selective inhibition of the PNP from H. pylori. Using the methods described above, the effect of immucillin A on the rate of the 7-methylguanosine (m^7Guo) phosphorolysis reaction catalysed by PNP from H. pylori was examined (FIG. 1). Since it is known (Schramm, 2018) that immucillins form a strongly bound complex with the enzyme relatively slowly, reactions were initiated by adding the substrate, m^7Guo, to a cuvette in which the enzyme was incubated with the inhibitor, as described in Example 1.
Data analysis was also performed as described in this Example. The range of substrate concentrations tested was 10-200 μM or 10-280 μM (shown in FIG. 4), and the range of inhibitor concentrations was chosen according to the observed degree of inhibition of the reaction, in order to obtain a significant degree of inhibition that allows determination of the inhibition mechanism and determination of inhibition constants (see FIG. 4). […]

[4] = biological target: T3, human PNP (Homo sapiens, UniProt P00491); details: Bzowska et al., 2000; cited from earlier work
T3 sequence (P00491 1-289): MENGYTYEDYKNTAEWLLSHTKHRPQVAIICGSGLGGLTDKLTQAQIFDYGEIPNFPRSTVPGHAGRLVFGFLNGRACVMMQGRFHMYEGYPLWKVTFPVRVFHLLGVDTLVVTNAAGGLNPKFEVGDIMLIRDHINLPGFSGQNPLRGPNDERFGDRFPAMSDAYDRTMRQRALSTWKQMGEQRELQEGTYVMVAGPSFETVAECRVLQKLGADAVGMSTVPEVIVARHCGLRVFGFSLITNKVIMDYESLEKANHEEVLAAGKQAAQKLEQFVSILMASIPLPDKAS

[5] = system: H. pylori strain 26695; assay: Growth curve method / MIC in liquid culture, strain 26695; format: cell-based, Helicobacter pylori; details: 2.5 mM; strain not stated, method of Example 3
Experimental: The representative PNP inhibitor from H. pylori included in this study was immucillin A. The experiment was conducted using the growth curve method (two-fold serial dilutions in liquid medium). The tested H. pylori strains were cultured in Petri dishes with BHI solid medium supplemented with 10% FBS and 1% H. pylori Selective Supplement antibiotic kit, in anaerostats under microaerophilic conditions (5% 02, 10% CO2, 85% N2) at 37° C. for 3 days. Liquid culture of H. pylori was conducted overnight with shaking at 37° C. under microaerophilic conditions in BHI medium supplemented with 10% FBS and 1% H. pylori Selective Supplement antibiotic kit. Subsequently, for the essential experiment of determining the minimum inhibitory concentration (MIC), double strengthened liquid BHI medium was prepared, that is, supplemented with 20% FBS and a 2% set of H. pylori Selective Supplement antibiotics.
Bacterial proliferation inhibition experiments were carried out in 24-deep-well 2 ml flat-bottomed plates at a solution volume per well of 0.5 ml. In a single well, double strengthened (relative to the concentration planned for testing) solutions of the test inhibitor and double strengthened liquid BHI medium inoculated with H. pylori (10^4-10^5 CFU/ml in the final volume in the well, corresponding to the optical density of the culture OD600=0.05) were mixed together in a 1:1 ratio.
Kanamycin at a concentration of 25 μg/ml (Irie et al., 1997) was used as a positive control, while Mili-Q deionized water and BHI medium not inoculated with bacteria were used as negative controls. Plates were shaken at 37° C., under microaerophilic conditions. […] After 24 hours, the OD600 of samples containing the negative control, i.e. with Mili-Q deionized water, was about 1.2-1.4, corresponding to a bacterial concentration of about […].
In addition, the method proposed by Knezevic et al. (2018) was used to check whether the observed OD600 was from live bacterial cells. For this purpose, an equal volume of Christensen's double strength urea broth (that is, containing twice the concentration of all components) was added to the wells after incubation, and the plates were additionally incubated for 4 hours in an oxygen atmosphere at 37° C. During incubation, in wells with urease produced by live bacteria, urea is converted to ammonia and carbon dioxide, changing the pH of the solution and thus the colour of the phenol red indicator contained in the medium (from orange to purple).
All experiments were performed in triplicate.
The experiments were carried out using the growth curve method as described in Example 3, and the results obtained for two of the compounds tested are shown in FIG. 5. As the water solubility of the compounds tested, with the exception of 2,6-diCl-Pu, is relatively poor, two experiments were carried out: the first with the maximum concentration possible under the experimental conditions in aqueous solution with a small admixture of DMSO, and the second with higher concentrations that led to partial precipitation of the compound.
The antibacterial activity of two compounds, mefloquine (in the form of hydrochloride) and quinine, described in the literature as potent in vitro inhibitors of the PNP enzyme from Plasmodium falciparum (Dziekan et al., 2019), was tested. Using a two-fold serial dilution method in liquid medium (as described in Example 3), the MIC values for mefloquine and quinine were determined against clinical H. pylori strains resistant to MTZ, CLR and MTZ+CLR (M26, M91, M92 and M93), as well as the reference H. pylori strain 26695. Four clinical H. pylori strains isolated from adults, from primary infections (the subjects had never previously been treated against H. pylori infection) were tested. These strains come from the collection of the Department of Microbiology of the Medical University of Wroclaw and were obtained due to collaboration with Prof. Grażyna Gościniak, MD, PhD. […]

[6] = biological target: T1, PNP from E. coli; details: read-out: inhibition constant; cited from earlier work
[7] = system: H. pylori; details: Wojtyś et al., 2021; cited from earlier work
[8] = biological target: T4, AdSS from H. pylori strain 26695 (Helicobacter pylori, UniProt P56137); assay: AdSS enzyme activity assay (adenylosuccinate formation, 280 nm); format: biochemical
T4 construct: made in house; host or cells: E. coli BL21 (DE3)
T4 sequence (P56137 1-411): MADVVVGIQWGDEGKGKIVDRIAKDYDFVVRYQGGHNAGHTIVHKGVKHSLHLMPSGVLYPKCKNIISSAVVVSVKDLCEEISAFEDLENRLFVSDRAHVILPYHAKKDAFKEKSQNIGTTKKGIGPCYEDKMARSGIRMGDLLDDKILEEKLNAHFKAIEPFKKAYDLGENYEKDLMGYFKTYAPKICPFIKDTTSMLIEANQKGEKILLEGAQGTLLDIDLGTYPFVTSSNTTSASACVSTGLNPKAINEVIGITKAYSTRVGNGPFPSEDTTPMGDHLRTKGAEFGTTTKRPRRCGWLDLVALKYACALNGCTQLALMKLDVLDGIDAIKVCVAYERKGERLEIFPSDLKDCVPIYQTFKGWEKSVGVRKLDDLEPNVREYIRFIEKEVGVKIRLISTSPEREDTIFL
Experimental: Enzymatic activity measurements were carried out in the similar manner as described in Bubić et al. (2018), at 25° C., in cuvettes with an optical path length of 1 cm containing 1 ml of reaction mixture consisting of 20 mM Hepes/NaOH buffer pH 7.7, 1 mM MgSO4 and the substrates, GTP, IMP and Asp. Saturating concentrations of substrates, namely GTP: 0.06 mM, IMP: 0.15 mM and Asp: 5 mM, were used to measure specific activity. The extinction coefficient at 280 nm of 1.17×10^4 M^−1 cm^−1 (adenylosuccinate formation) was used to calculate the concentration of the product formed (Rudolph and Fromm 1969). One unit (U) of AdSS specific activity is defined as μmol of adenylosuccinate produced per minute at 25° C. Specific activity is expressed as units of enzymatic activity per mg of protein (U/mg).
Inhibition of AdSS by PLP was examined first at saturation with all enzyme substrates and with increasing concentrations of the PLP inhibitor.
To determine the extent to which PLP-induced inactivation develops over time, the enzyme at low concentration (0.022 μM) was incubated at 25° C. in Hepes/NaOH buffer pH 7.0, in the presence of 1.11 mM MgSO4, 5.55 mM Asp, 167 μM IMP and PLP at various concentrations (ranging between 0.03 μM and 8.1 μM). The mixture contained all components necessary for the reaction with the exception of GTP, which, according to Dong and Fromm (1990), competes with PLP. Aliquots of 900 μl were taken from the incubated mixture at specified time intervals, placed in a cuvette and 100 μl of 0.6 mM GTP solution was added to initiate the reaction. The enzyme activity was determined and analysed in the known manner as described above.
Exponential decays were fitted to the data obtained for each concentration and the reaction rate constant of the inactivation process, k, and the residual enzymatic activity observed when the system reached equilibrium, A∞, were obtained as fitting parameters. From these parameters, the half-life of the inactivation process activity, t1/2, was calculated. The dependence of these three parameters on PLP concentration is shown in the lower panel of FIG. 12.
The inhibition of AdSS from H. pylori by pyridoxal (PI-h) was studied at saturation with all enzyme substrates and with increasing concentrations of the inhibitor, similar to that for PLP in Example 10a).

T2 sequence (P56463 whole entry): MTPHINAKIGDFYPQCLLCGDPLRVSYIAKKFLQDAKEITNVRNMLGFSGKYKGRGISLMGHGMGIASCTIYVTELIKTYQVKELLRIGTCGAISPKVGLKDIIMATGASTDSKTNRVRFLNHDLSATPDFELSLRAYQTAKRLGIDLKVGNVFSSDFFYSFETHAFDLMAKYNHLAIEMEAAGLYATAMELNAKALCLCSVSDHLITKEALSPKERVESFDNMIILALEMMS
T1 sequence (P0ABP8 2-239): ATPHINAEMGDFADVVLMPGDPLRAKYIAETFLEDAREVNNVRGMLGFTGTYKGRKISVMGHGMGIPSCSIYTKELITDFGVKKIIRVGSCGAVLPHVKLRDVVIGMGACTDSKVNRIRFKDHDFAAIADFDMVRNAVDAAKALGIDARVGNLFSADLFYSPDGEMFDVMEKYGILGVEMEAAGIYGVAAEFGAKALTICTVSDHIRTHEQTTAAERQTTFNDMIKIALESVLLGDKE

Row | SMILES | stronger inhibition than formycin A [1] [fold] | Ki [2] [µM] | Ki [3] [µM] | inhibition of human PNP [4] | inhibition of H. pylori growth (% of the growth observed without the inhibitor) [5] | Ki [6] [µM] | inhibition of proliferation of H. pylori [7] | inhibition of AdSS from H. pylori [8]
1 | Cn1cnc2c([C@@H]3O[C@H](CO)C(O)[C@@H]3O)nnc-2c1N (stereo partly shown) [6-methylformycin A] | 10 | – | – | – | – | – | – | –
2 | Nc1ncnc2c([C@@H]3O[C@H](CO)[C@@H](O)[C@H]3O)[nH]nc12 [formycin A] | – | 14 | 14 | not an inhibitor | 50% | ~5 | – | –
3 | O=c1[nH]cnc2c([C@@H]3O[C@H](CO)[C@@H](O)[C@H]3O)n[nH]c12 [formycin B] | – | 1 | 1 | very weak inhibitor | very weak inhibition | ~5 | – | –
4 | O=CN(O)CC(=O)O [hadacidin] | – | – | – | – | – | – | does not inhibit the proliferation of bacteria | strongly inhibits

— patent US20250195498A1, “INHIBITOR OF CELLULAR PURINE NUCLEOTIDE SALVAGE PATHWAY ENZYME FOR USE IN THE TREATMENT AND/OR PREVENTION OF HELICOBACTER PYLORI INFECTION AND/OR DISEASE ASSOCIATED WITH SUCH INFECTION AND PHARMACEUTICAL COMPOSITION COMPRISING THE SAME” (UNIWERSYTET WARSZAWSKI, priority 2022, published 2025)
